According to patent US8022034B2, “Combination therapy for the treatment of diabetes and conditions related thereto and for the treatment of conditions ameliorated by increasing a blood GLP-1 level” (Arena Pharmaceuticals, Inc., priority 2005, dated 2011):

Experiments:
[1] = system: elevated blood glucose level; test: Oral glucose tolerance test (oGTT) in mice (Example 1); assay type: in vivo
Protocol: Oral glucose tolerance test (oGTT) in mice was carried out as described here. Overnight fasted mice (n=6 mice per treatment) were administered via oral gavage with vehicle (PET), a GPR119 agonist (AR231453) at 1 mkg (milligram compound per kilogram of body weight), a DPP-IV inhibitor (AR247810) at 0.1 mkg, or a combination of the GPR119 agonist (1 mkg) and the DPP-IV inhibitor (0.1 mkg). Thirty minutes later, a glucose bolus (3 gram/kg) was then delivered per orally. Plasma glucose levels were determined at the indicated time points over a two hour period using blood (˜5 μl) collected from tail nick and a glucose meter. Glycemic excursion curve was graphed based on data from 6 mice and given in mean values+/−SEM (FIG. 1A).

[2] = system: GLUTag-Fla cells; test: GLP-1 secretion in GLUTag-Fla cells (GLP-1 Active ELISA); assay type: cell-based, mouse; details: various concentrations, serum free DMEM with 15 mM glucose, one hour at 37° C.
Protocol: GLUTag-Fla cells (see Example 12, supra) were plated in 24-well plates on day one in complete culture medium (DMEM/10% FBS). On day two the culture medium was replaced with a low glucose medium (DMEM/3 mM Glucose/10% FBS). On day three cells were washed twice with 1XPBS. The washed GLUTag-Fla cells were stimulated with GPR119 agonist (AR231453) at various concentrations or with forskolin (1 uM) as a positive control in serum free DMEM with 15 mM glucose for one hour at 37° C. and 5% CO2 in a tissue culture incubator. The supernatants were then collected and clarified by centrifugation at 500 g and 4° C. for 5 minutes. GLP-1 released into the supernatant was determined by ELISA using reagents purchased from LINCO Research Laboratory [Glucagon-Like Peptide-1 (Active) ELISA Kit. Cat. #EGLP-35K].

[3] = system: GLUTag-Fro cells which do not express GPR119; test: Flash Plate adenylyl cyclase (cAMP) assay with GLUTag-Fro cell membranes (negative control); assay type: biochemical, mouse
Protocol: (§1) GLUTag is a mouse enteroendocrine cell line that secretes GLP-1 [Brubaker et al., Endocrinology (1998) 139:4108-4114]. The effect of GPR119 agonist on the level of intracellular cAMP in GLUTag (Fla subline) enteroendocrine cells was determined. The Fro subline of GLUTag was used as a negative control.
(§2) GluTag (GLUTag-Fla and GLUTag-Fro) cells were plated at […] in 15-cm tissue culture plate with regular growth medium. On the next day, cells were scraped off with cold Scraping Buffer (20 mM HEPES, 10 mM EDTA, pH7.4) and spinned down at 1000 rpm for 17 mins at 4° C. Cell pellets were washed with cold Membrane Wash Buffer (20 mM HEPES, 0.1 mM EDTA, pH7.4) and spun again as above. […] Protein concentration was determined by Bradford Assay. […]
(§3) The cyclase assay was done with a Flash Plate™ Adenylyl Cyclase kit (New England Nuclear; Cat. No. SMP004A). […] The cAMP generated in the wells can be quantitated by a direct competition for binding of radioactive cAMP tracer to the cAMP antibody.
(§4) Details of the cyclase assay as it was carried out are described here. cAMP standards and Detection Buffer (comprising 1 μCi of tracer [125I]cAMP (50 μl) to 11 ml Detection Buffer) were prepared and maintained in accordance with the manufacturer's instructions. […] Plates were incubated for an additional two hours, after which the samples were counted in a Wallac MicroBeta scintillation counter. […]

[4] = biological target: T1, GPR119 (GLUTag-Fla cells which express GPR119) (Mus musculus, UniProt Q7TQP3); test: Flash Plate adenylyl cyclase (cAMP) assay with GLUTag-Fla cell membranes; assay type: biochemical
T1 construct: endogenous in cells; host or cells: GLUTag-Fla (mouse enteroendocrine cell line), membrane preparation
T1 sequence (Q7TQP3 1-335): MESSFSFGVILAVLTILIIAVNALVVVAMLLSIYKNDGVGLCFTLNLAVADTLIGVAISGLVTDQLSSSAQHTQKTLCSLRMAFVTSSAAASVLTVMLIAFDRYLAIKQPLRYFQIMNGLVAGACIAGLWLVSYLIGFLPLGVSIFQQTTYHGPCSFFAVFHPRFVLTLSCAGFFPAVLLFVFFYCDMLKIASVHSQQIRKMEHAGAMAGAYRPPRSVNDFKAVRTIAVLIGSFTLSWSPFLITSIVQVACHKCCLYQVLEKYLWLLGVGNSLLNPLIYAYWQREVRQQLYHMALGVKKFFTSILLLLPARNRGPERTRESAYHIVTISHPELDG
Protocol: as §1, §2, §3, §4

[5] = system: blood glucose level; test: Oral glucose tolerance test (oGTT) in C57BL/6J mice (Example 14); assay type: in vivo; details: DPP-IV inhibitor alone, 1 mpk oral gavage, one hour before glucose bolus 2 gram/kg
Protocol: Oral glucose tolerance test (oGTT) in 7-8 week old C57BL/6J mice was carried out as described here. […] GPR119 agonist AR244061 was administered at 10 mpk or 30 mpk (milligram compound per kilogram of body weight). […] One hour after compound dosing, a glucose bolus (2 gram/kg) was delivered per orally, and tail blood samples were collected to measure blood glucose at 0, 30, 60 and 120 minutes. […] For each treatment group, glycemic excursion curve was graphed and is presented with blood glucose concentration given in mean values+/− standard error of the mean (SEM). Area Under Curve (AUC) of the glycemic excursion was calculated and reported as AUC (% of vehicle control).

CC(C)c1noc(C2CCN(c3ncnc(Nc4ccc(S(C)(=O)=O)cc4F)c3[N+](=O)[O-])CC2)n1 [AR231453]
AUC inhibition (effective therapeutic response) ([1]; compound alone at significantly higher doses (FIG. 1C, FIG. 1D)): around 40% | GLP-1 secretion on stimulation [2]: secrete GLP-1 | Elevation of the level of intracellular cAMP [3]: not | Elevation of the level of intracellular cAMP ([4]; GLUTag-Fla cells which express GPR119): elevate the level of intracellular cAMP | EC50 ([4]; GLUTag-Fla membranes, eight doses from 10 uM to 1.27 nM, 60 min at room temperature, read-out: EC50 for elevation of cAMP in GLUTag cells): ~4.3 nM

N#C[C@@H]1CCCN1C(=O)CNC12CC3CC(CC(O)(C3)C1)C2 [LAF237, (1-[[3-hydroxy-1-adamantyl)amino]acetyl]-2-cyano-(S)-pyrrolidine]
Glycemic control in oGTT [5]: measurable glycemic control

N[C@@H](CC(=O)N1CCn2c(nnc2C(F)(F)F)C1)Cc1cc(F)c(F)cc1F [MK-0431, 3(R)-Amino-1-[3-(trifluoromethyl)-5,6,7,8-tetrahydro[1,2,4]triazolo[4,3-a]pyrazin-7-yl]-4-(2,4,5-trifluorophenyl)butan-1-one]
Glycemic control in oGTT [5]: measurable glycemic control

exendin-4: incretin mimetic [reference compound]
AUC inhibition of glycemic excursion ([1]; incretin mimetic in this mouse model, dose not given): ~60%
